Data as given in US20230066011A1, “PYRROLOPYRIMIDINE DERIVATIVE, AND PHARMACEUTICAL COMPOSITION FOR PREVENTING OR TREATING PROTEIN KINASE-RELATED DISEASE COMPRISING SAME AS ACTIVE INGREDIENT” (VORONOI CO., LTD., priority 2019, published 2023).

Experiments:
TTK = target: T1, TTK (Homo sapiens, UniProt P33981); assay: TTK enzyme inhibition, ADP-Glo kinase assay; format: biochemical; set-up: purchased SignalChem T20-10G; conditions: ATP 5 μM
T1 sequence (P33981 1-857): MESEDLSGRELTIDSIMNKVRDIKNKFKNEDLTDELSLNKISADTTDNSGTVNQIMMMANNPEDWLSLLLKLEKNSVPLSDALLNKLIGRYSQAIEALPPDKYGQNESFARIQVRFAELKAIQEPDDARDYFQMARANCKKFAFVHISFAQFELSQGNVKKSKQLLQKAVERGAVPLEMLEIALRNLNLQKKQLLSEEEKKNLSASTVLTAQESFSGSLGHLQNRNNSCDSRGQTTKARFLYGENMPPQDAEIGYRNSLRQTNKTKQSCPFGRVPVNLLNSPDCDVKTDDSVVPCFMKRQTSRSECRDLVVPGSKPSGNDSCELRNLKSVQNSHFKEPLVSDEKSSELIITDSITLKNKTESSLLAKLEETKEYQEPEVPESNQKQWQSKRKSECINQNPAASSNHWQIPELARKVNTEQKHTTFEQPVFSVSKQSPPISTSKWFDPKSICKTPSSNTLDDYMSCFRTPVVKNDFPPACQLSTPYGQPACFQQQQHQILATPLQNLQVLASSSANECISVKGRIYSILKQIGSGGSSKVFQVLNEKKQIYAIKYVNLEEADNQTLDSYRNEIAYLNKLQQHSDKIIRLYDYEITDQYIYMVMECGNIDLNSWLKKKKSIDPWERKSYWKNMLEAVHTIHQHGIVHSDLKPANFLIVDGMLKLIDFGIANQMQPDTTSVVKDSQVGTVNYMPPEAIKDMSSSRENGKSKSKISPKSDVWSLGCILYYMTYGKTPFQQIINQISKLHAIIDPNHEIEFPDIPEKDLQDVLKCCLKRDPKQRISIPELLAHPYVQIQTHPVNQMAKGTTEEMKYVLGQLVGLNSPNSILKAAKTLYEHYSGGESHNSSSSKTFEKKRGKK
Summary of the method: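 Purified human TTK (7.5 ng) was reacted with 5 μM ATP and 0.2 μg MBP substrate for 4 h at 25 °C in 40 mM Tris-HCl pH 7.4, 20 mM MgCl2, 0.1 mg/mL BSA, 50 μM DTT. ADP formation was read by ADP-Glo luminescence, and IC50 was taken relative to solvent control.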

MDA-MB-231 cell line = assay: Inhibition of proliferation of MDA-MB-231 cancer cells (Cell Titer-Glo); format: cell-based; conditions: Homo sapiens, 72 hours
Summary of the method: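 Cells seeded at 2,000/well and exposed 72 h to 11 concentrations of compound (3-fold dilutions, final 10.000000 down to 0.000169 μM) in DMEM or RPMI. Viability read by Cell Titer-Glo luminescence after 10 min at room temperature; GI50 calculated from luminescence.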

TNF-α = assay: Inhibition of LPS-induced TNF-α secretion of THP-1 monocytes (ELISA); format: cell-based, human; conditions: Homo sapiens, THP-1; compound 0.5 μM, LPS 500 ng/mL, 24 hours; read-out: THP-1/TNF-α (% inhib)
Method: To evaluate an inhibitory effect on cytokine secretion of monocytes, THP-1 cells (ATCC, #TIB-202) as a human-derived monocyte line were cultured in an RPMI-1640 (Hyclone, SH30027.01) medium supplemented with 10% fetal bovine serum (Hyclone, SH30084.03), 1% penicillin streptomycin (Welgene, LS202-02), and 50 μM 2-mercaptoethanol (Gibco, #21985023). In the test, the cells were seeded in a 48-well plate (SPL, #30048) at a density of 1.5 to 2×10^5 cells/250 μL per well, and cultured at 37° C. for 16 hours in a 5% CO2 incubator. Thereafter, the compound was diluted with DMSO so that the final concentration of the compound was 0.5 μM. Then, the cells were treated with the diluted compound before an hour of treatment with lipopolysaccharides (LPS) (Sigma, #L6529). After the treatment with the compound, the cells were treated with LPS so that the final concentration was 500 ng/mL. Then, a cell culture broth was collected after 24 hours of culture, and levels of cytokine IL-6 (R&D Systems, #D6050) and TNF-α (R&D Systems, #DTA00D) comprised in the culture broth were measured using respective ELISA kits. After an experiment was performed according to the manufacturer's guidelines, cell analysis was performed by measuring the optical density at 450 nm using a microplate reader.

For `CCN1CCP(=O)(c2ccc(Nc3nc(C4CC4)c4c(C#N)c[nH]c4n3)c(OC)c2)CC1` [Example 261], the IC50 (TTK) was < 100 nM.
Molecule `COc1cc(S(=O)(=O)N2CCOCC2)ccc1Nc1nc(C2CC2)c2c(C#N)c[nH]c2n1` [Example 223, 4-cyclopropyl-2-((2-methoxy-4-(morpholinosulfonyl)phenyl)amino)-7H-pyrrolo[2,3-d]pyrimidine-5-carbonitrile] has a GI50 (MDA-MB-231 cell line) of 301 to 1000 nM and an IC50 (TTK) of 101 to 300 nM.
`O=C(c1ccc(Nc2nc(NC3CCC3)c3c(C(F)(F)F)c[nH]c3n2)c2c1OCCO2)N1CCN(C2COC2)CC1` [Example 407, (8-((4-(cyclo-butylamino)-5-(trifluoromethyl)-7H-pyrrolo[2,3-d]pyrimidin-2-yl)amino)-2,3-dihydrobenzo[b] [1,4]dioxin-5-yl) (4-(oxetan-3-yl)piperazin-1-yl)methanone] showed an inhibition at 0.5 µM (TNF-α) of 5.3%.
With `COCCNc1nc(Nc2ccc(P3(=O)CCN(C4CCOCC4)CC3)cc2OC)nc2[nH]cc(C(F)(F)F)c12` [Example 444, 4-(3-methoxy-4-((4-((2-methoxyethyl)amino)-5-(trifluoromethyl)-7H-pyrrolo[2,3-d]pyrimidin-2-yl)amino)phenyl)-1-(tetrahydro-2H-pyran-4-yl)-1,4-azaphosphinane 4-oxide] the inhibition at 0.5 µM (TNF-α) was 14.4%.
`O=C(c1ccc(Nc2nc(NCC3CC3)c3c(C(F)(F)F)c[nH]c3n2)c2c1CCO2)N1CCC(N2CCOCC2)CC1` [Example 461, (7-((4-((cyclo-propylmeth-yl)amino)-5-(trifluoromethyl)-7H-pyrrolo[2,3-d]pyrimidin-2-yl)amino)-2,3-dihydrobenzo-furan-4-yl)(4-morpho-linopiperidin-1-yl)methanone] showed an inhibition at 0.5 µM (TNF-α) of 2.3%.
In the case of `O=C(c1ccc(Nc2nc(NC3CCCCC3)c3c(C(F)(F)F)c[nH]c3n2)c2c1OCCO2)N1CCN(C2COC2)CC1` [Example 415, (8-((4-(cyclo-hexylamino)-5-(trifluoromethyl)-7H-pyrrolo[2,3-d]pyrimidin-2-yl)amino)-2,3-dihydrobenzo[b] [1,4]dioxin-5-yl) (4-(oxetan-3-yl)piperazin-1-yl)methanone], the IC50 (TTK) is reported as < 100 nM.
With `COc1cc(S(=O)(=O)N2CCC(N3CCOCC3)CC2)ccc1Nc1nc(C2CC2)c2c(C(F)(F)F)c[nH]c2n1` [Example 226] the GI50 (MDA-MB-231 cell line) was 301 to 1000 nM and the IC50 (TTK) was < 100 nM.
`CCNc1nc(Nc2ccc(S(=O)(=O)N3CCC(N4CCOCC4)CC3)cc2OC)nc2[nH]cc(C(F)(F)F)c12` [Example 158, N^4-ethyl-N^2-(2-methoxy-4-((4-morpholinopiperidin-1-yl)sulfonyl)phenyl)-5-(trifluoromethyl)-7H-pyrrolo[2,3-d]pyrimidine-2,4-diamine 2,2,2-trifluoroacetate] was tested, and the GI50 (MDA-MB-231 cell line) was 101 to 300 nM and the IC50 (TTK) was < 100 nM.
For `N#Cc1c[nH]c2nc(Nc3ccc(C(=O)N4CCOCC4)c4c3OCCO4)nc(NCC3CCCC3)c12` [Example 133, 4-((cyclopentylmethyl)amino)-2-((8-(morpholine-4-carbonyl)-2,3-dihydrobenzo[b][1,4]dioxin-5-yl)amino)-7H-pyrrolo[2,3-d]pyrimidine-5-carbonitrile], the GI50 (MDA-MB-231 cell line) was 101 to 300 nM and the IC50 (TTK) was < 100 nM.
Molecule `CCNc1nc(Nc2ccc(C(=O)N3CC[C@H](N4CCOCC4)C3)c3c2OCC3)nc2[nH]cc(C(F)(F)F)c12` [Example 475, (S)-(7-((4-(ethylamino)-5-(trifluoromethyl)-7H-pyrrolo[2,3-d]pyrimidin-2-yl)amino)-2,3-dihydrobenzo-furan-4-yl)(3-morpholino-pyrrolidin-1-yl)methanone] has an inhibition at 0.5 µM (TNF-α) of 4.7%.
For `COc1cc(S(=O)(=O)N2CCC(N3CCOCC3)CC2)ccc1Nc1nc(C2CC2)c2c(C#N)c[nH]c2n1` [Example 224, 4-cyclopropyl-2-((2-methoxy-4-((4-morpholinopiperidin-1-yl)sulfonyl)phenyl)amino)-7H-pyrrolo[2,3-d]pyrimidine-5-carbonitrile], the IC50 (TTK) was < 100 nM.
In the case of `COc1cc(P2(=O)CCN(C3CC3)CC2)ccc1Nc1nc(NC2CCCC2)c2c(C(F)(F)F)c[nH]c2n1` [Example 413], the IC50 (TTK) is reported as < 100 nM.
`CCNc1nc(Nc2cc(F)c(S(=O)(=O)N3CCC(N4CCOCC4)CC3)cc2OC)nc2[nH]cc(C(F)(F)F)c12` [Example 232, N^4-ethyl-N^2-(5-fluoro-2-methoxy-4-((4-morpholinopiperidin-1-yl)sulfonyl)phenyl)-5-(trifluoromethyl)-7H-pyrrolo[2,3-d]pyrimidine-2,4-diamine] gave a GI50 (MDA-MB-231 cell line) of 301 to 1000 nM and an IC50 (TTK) of 301 to 1000 nM.
`CCNc1nc(Nc2ccc(C(=O)N3CCN(C4COC4)CC3)c3c2OCCO3)nc2[nH]cc(C(F)(F)F)c12` [Example 400, (8-((4-(ethylamino)-5-(trifluoromethyl)-7H-pyrrolo[2,3-d]pyrimidin-2-yl)amino)-2,3-dihydrobenzo[b] [1,4]dioxin-5-yl) (4-(oxetan-3-yl)piperazin-1-yl)methanone] gave an inhibition at 0.5 µM (TNF-α) of 1%.
In the case of `CCCNc1nc(Nc2ccc(S(=O)(=O)N3CCC(N4CCOCC4)CC3)cc2OC)nc2[nH]cc(C(F)(F)F)c12` [Example 161, N^2-(2-methoxy-4-((4-morpholinopiperidin-1-yl)sulfonyl)phenyl)-N^4-propyl-5-(trifluoromethyl)-7H-pyrrolo[2,3-d]pyrimidine-2,4-diamine], the GI50 (MDA-MB-231 cell line) is reported as 301 to 1000 nM and the IC50 (TTK) is reported as 101 to 300 nM.
`CCNc1nc(Nc2ccc(C(=O)N3CCC(N4CCOCC4)CC3)c3c2OCC3)nc2[nH]cc(C#N)c12` [Example 347, 4-(ethylamino)-2-((4-(4-morpholino-piperidine-1-carbonyl)-2,3-dihydro-benzofuran-7-yl)amino)-7H-pyrrolo[2,3-d]pyrimidine-5-carbonitrile] was tested, and the inhibition at 0.5 µM (TNF-α) was 13.3%.
With `N#Cc1c[nH]c2nc(Nc3ccc(C(=O)N4CCC(N5CCOCC5)CC4)c4c3OCCO4)nc(C3CC3)c12` [Example 221, 4-cyclopropyl-2-((8-(4-morpholinopiperidine-1-carbonyl)-2,3-dihydrobenzo[b][1,4]dioxin-5-yl)amino)-7H-pyrrolo[2,3-d]pyrimidine-5-carbonitrile] the IC50 (TTK) was < 100 nM.
With `CCCNc1nc(Nc2ccc(C(=O)N3CCC(N4CCOCC4)CC3)c3c2OCCO3)nc2[nH]cc(C#N)c12` [Example 138, 2-((8-(4-morpholinopiperidine-1-carbonyl)-2,3-dihydrobenzo[b][1,4]dioxin-5-yl)amino)-4-(propylamino)-7H-pyrrolo[2,3-d]pyrimidine-5-carbonitrile] the IC50 (TTK) was < 100 nM.
`O=C(c1ccc(Nc2nc(C3CC3)c3c(C(F)(F)F)c[nH]c3n2)c2c1OCCO2)N1CCC(N2CCOCC2)CC1` [Example 228, (8-((4-cyclopropyl-5-(trifluoromethyl)-7H-pyrrolo[2,3-d]pyrimidin-2-yl)amino)-2,3-dihydrobenzo[b][1,4]dioxin-5-yl)(4-morpholinopiperidin-1-yl)methanone] was tested, and the IC50 (TTK) was < 100 nM.
`CNc1nc(Nc2ccc(C(=O)N3CCC(N4CCOCC4)CC3)c3c2OCC3)nc2[nH]cc(C(F)(F)F)c12` [Example 217, (7-((4-(methylamino)-5-(trifluoromethyl)-7H-pyrrolo[2,3-d]pyrimidin-2-yl)amino)-2,3-dihydrobenzofuran-4-yl)(4-morpholinopiperidin-1-yl)methanone] was tested, and the IC50 (TTK) was < 100 nM.
In the case of `CNc1nc(Nc2cc(F)c(S(=O)(=O)N3CCC(N4CCOCC4)CC3)cc2OC)nc2[nH]cc(C(F)(F)F)c12` [Example 231, N^2-(5-fluoro-2-methoxy-4-((4-morpholinopiperidin-1-yl)sulfonyl)phenyl)-N^4-methyl-5-(trifluoromethyl)-7H-pyrrolo[2,3-d]pyrimidine-2,4-diamine], the GI50 (MDA-MB-231 cell line) is reported as 101 to 300 nM and the IC50 (TTK) is reported as 101 to 300 nM.
